Data on 1 compound can be found in patent US8394791B2, “Crystalline, enantiomerically pure salt form of a beta-agonist, and the use thereof as a drug” (Boehringer Ingelheim International GmbH, priority 2008, dated 2013).

A short description of one series: Thermoanalysis (DSC/TG). Format: physicochemical. To be noted: heating rate 10 K/min, crystalline form (FIG. 2). As to the method: Thermoanalysis (DSC/TG Diagram, FIG. 2)
Technical Data Relating to the Thermoanalytical DSC Device Used:
DSC 822 made by Mettler Toledo; heating rate: 10 K/min; type of crucible: perforated aluminium crucible; atmosphere: N2, 80 ml/min flux; weight: 3-10 mg.
Technical Data Relating to the Thermoanalytical TG Device Used:
TGA/SDTA 851 Made by Mettler Toledo with IR coupling (Nicolet FT-IR 4700) for analysing the volatile fractions driven off; heating rate: 10 K/min; type of crucible: open aluminium oxide crucible; atmosphere: N2, 20 ml/min flux; weight: 15-25 mg.

Series [1] in a line: Sorption profile (DVS sorption balance), hygroscopic characteristics. Format: physicochemical. The conditions noted are these: relative humidity range between 10-90%; crystalline form. As to the method:
Sorption Profile (DSV Diagram, Kinetic & Isothermic Plot, FIG. 3)
Technical Data Relating to the Sorption Balance Used:
DVS-1 made by Surface Measurement Systems (=SMS) for analysing the hygroscopic characteristics; humidity profile of 10-90% r.h. In 10% steps, recording both a sorption and a desorption profile, weight: 10-20 mg

For `CCC1(CC)OC(=O)N(CCC(C)(C)NC[C@H](O)c2ccc(O)c(NS(C)(=O)=O)c2)c2ccccc21` [compound 1, N-(5-{(R)-2-[3-(4,4-diethyl-2-oxo-4H-benzo[d][1,3]oxazin-1-yl)-1,1-dimethyl-propylamino]-1-hydroxy-ethyl}-2-hydroxy-phenyl)-methanesulphonamide], in the series “Thermoanalysis (DSC/TG)”, the “thermally stable at a thermal load of up to” value is “up to 210 °C”. The water absorption entry in series [1] is “less than 0.5 wt. %”.
